Values of other authors as cited in patent publication US20060160230A1, “Wipes and methods for removal of metal contamination from surfaces” (The Government of the United States of America as …, priority 2005, published 2006).

What was measured:
[1] = 10% citric acid lotion applied topically for a three month period (Bernstein et al. 1997)
[2] = 1999; rinse-off cosmetic products

Molecule	clinical signs of adverse effects [1]	safety conclusion of CIR Expert Panel [2]
O=C(O)CC(O)(CC(=O)O)C(=O)O [citric acid]	No clinical signs of adverse effects	
isostearamidopropyl morpholine lactate [ISML]		considered safe for use in rinse-off cosmetic products
